Experiment: xn = mol fraction of the nth substance listed
Settings: 101 kPa, Liquid; for viscosity: Concentric cylinders viscometry; for mass density: Vibrating tube method

COCCOCCOCCOCCOC [2,5,8,11,14-pentaoxapentadecane] + CCCCO
Settings | mass density [kg/m3] | viscosity [mPa·s]
288.15 K, x2 = 0 | 1015.63 | 4.341
288.15 K, x2 = 0.1013 | 1006.51 | 4.077
288.15 K, x2 = 0.2236 | 993.986 | 3.779
288.15 K, x2 = 0.3036 | 984.642 | 3.567
288.15 K, x2 = 0.4131 | 969.983 | 3.317
288.15 K, x2 = 0.5065 | 955.349 | 3.129
288.15 K, x2 = 0.5996 | 938.288 | 2.945
288.15 K, x2 = 0.7007 | 916.154 | 2.795
288.15 K, x2 = 0.7991 | 889.873 | 2.74
288.15 K, x2 = 0.8996 | 856.379 | 2.875
293.15 K, x2 = 0 | 1011 | 3.834
293.15 K, x2 = 0.1013 | 1001.91 | 3.591
293.15 K, x2 = 0.2236 | 989.415 | 3.315
293.15 K, x2 = 0.3036 | 980.1 | 3.139
293.15 K, x2 = 0.4131 | 965.493 | 2.922
293.15 K, x2 = 0.5065 | 950.916 | 2.77
293.15 K, x2 = 0.5996 | 933.921 | 2.603
293.15 K, x2 = 0.7007 | 911.881 | 2.474
293.15 K, x2 = 0.7991 | 885.715 | 2.428
293.15 K, x2 = 0.8996 | 852.384 | 2.546
298.15 K, x2 = 0 | 1006.36 | 3.38
298.15 K, x2 = 0.1013 | 997.307 | 3.152
298.15 K, x2 = 0.2236 | 984.881 | 2.93
298.15 K, x2 = 0.3036 | 975.56 | 2.783
298.15 K, x2 = 0.4131 | 960.897 | 2.599
298.15 K, x2 = 0.5065 | 946.305 | 2.462
298.15 K, x2 = 0.5996 | 929.548 | 2.321
298.15 K, x2 = 0.7007 | 907.599 | 2.206
298.15 K, x2 = 0.7991 | 881.548 | 2.165
298.15 K, x2 = 0.8996 | 848.369 | 2.263
303.15 K, x2 = 0 | 1001.73 | 3.004
303.15 K, x2 = 0.1013 | 992.702 | 2.814
303.15 K, x2 = 0.2236 | 980.276 | 2.62
303.15 K, x2 = 0.3036 | 971.014 | 2.488
303.15 K, x2 = 0.4131 | 956.499 | 2.328
303.15 K, x2 = 0.5065 | 942.026 | 2.208
303.15 K, x2 = 0.5996 | 925.164 | 2.087
303.15 K, x2 = 0.7007 | 903.304 | 1.987
303.15 K, x2 = 0.7991 | 877.365 | 1.945
303.15 K, x2 = 0.8996 | 844.334 | 2.015
308.15 K, x2 = 0 | 997.104 | 2.691
308.15 K, x2 = 0.1013 | 988.097 | 2.525
308.15 K, x2 = 0.2236 | 975.701 | 2.357
308.15 K, x2 = 0.3036 | 966.466 | 2.241
308.15 K, x2 = 0.4131 | 951.994 | 2.1
308.15 K, x2 = 0.5065 | 937.569 | 1.991
308.15 K, x2 = 0.5996 | 920.77 | 1.885
308.15 K, x2 = 0.7007 | 898.993 | 1.796
308.15 K, x2 = 0.7991 | 873.162 | 1.757
308.15 K, x2 = 0.8996 | 840.275 | 1.807
313.15 K, x2 = 0 | 992.481 | 2.426
313.15 K, x2 = 0.1013 | 983.495 | 2.278
313.15 K, x2 = 0.2236 | 971.126 | 2.134
313.15 K, x2 = 0.3036 | 961.914 | 2.034
313.15 K, x2 = 0.4131 | 947.487 | 1.905
313.15 K, x2 = 0.5065 | 933.108 | 1.812
313.15 K, x2 = 0.5996 | 916.363 | 1.712
313.15 K, x2 = 0.7007 | 894.665 | 1.631
313.15 K, x2 = 0.7991 | 868.935 | 1.592
313.15 K, x2 = 0.8996 | 836.188 | 1.628
318.15 K, x2 = 0 | 987.859 | 2.199
318.15 K, x2 = 0.1013 | 978.879 | 2.074
318.15 K, x2 = 0.2236 | 966.542 | 1.942
318.15 K, x2 = 0.3036 | 957.357 | 1.853
318.15 K, x2 = 0.4131 | 942.969 | 1.738
318.15 K, x2 = 0.5065 | 928.631 | 1.653
318.15 K, x2 = 0.5996 | 911.939 | 1.562
318.15 K, x2 = 0.7007 | 890.317 | 1.488
318.15 K, x2 = 0.7991 | 864.686 | 1.45
318.15 K, x2 = 0.8996 | 832.069 | 1.47
323.15 K, x2 = 0 | 983.234 | 2.006
323.15 K, x2 = 0.1013 | 974.275 | 1.892
323.15 K, x2 = 0.2236 | 961.962 | 1.777
323.15 K, x2 = 0.3036 | 952.794 | 1.698
323.15 K, x2 = 0.4131 | 938.437 | 1.592
323.15 K, x2 = 0.5065 | 924.136 | 1.515
323.15 K, x2 = 0.5996 | 907.495 | 1.432
323.15 K, x2 = 0.7007 | 885.946 | 1.362
323.15 K, x2 = 0.7991 | 860.406 | 1.325
323.15 K, x2 = 0.8996 | 827.911 | 1.334
328.15 K, x2 = 0 | 978.613 | 1.838
328.15 K, x2 = 0.1013 | 969.653 | 1.736
328.15 K, x2 = 0.2236 | 957.366 | 1.633
328.15 K, x2 = 0.3036 | 948.222 | 1.558
328.15 K, x2 = 0.4131 | 933.901 | 1.465
328.15 K, x2 = 0.5065 | 919.635 | 1.394
328.15 K, x2 = 0.5996 | 903.036 | 1.318
328.15 K, x2 = 0.7007 | 881.55 | 1.254
328.15 K, x2 = 0.7991 | 856.094 | 1.213
328.15 K, x2 = 0.8996 | 823.712 | 1.209
333.15 K, x2 = 0 | 973.989 | 1.691
333.15 K, x2 = 0.1013 | 965.036 | 1.612
333.15 K, x2 = 0.2236 | 952.77 | 1.516
333.15 K, x2 = 0.3036 | 943.642 | 1.448
333.15 K, x2 = 0.4131 | 929.347 | 1.359
333.15 K, x2 = 0.5065 | 915.11 | 1.289
333.15 K, x2 = 0.5996 | 898.551 | 1.223
333.15 K, x2 = 0.7007 | 877.126 | 1.161
333.15 K, x2 = 0.7991 | 851.747 | 1.119
333.15 K, x2 = 0.8996 | 819.469 | 1.104

Source: the NIST ThermoML archive (doi:10.1007/s10765-013-1469-0)
